Reference: patent US7459477B2, “Substituted N-phenyl-phenoxy nicotinic acid-(thio)amides and their use as herbicides” (Nihon Nohyaku, Co., Ltd., priority 2001, dated 2008)

Experiments:
Type in all cases: in vivo
[1] = system: Green Peach Aphid (Myzus Persicae); experiment: Insecticidal effect on green peach aphid (Test Example 4); conditions: 500 ppm; stems and leaves of Chinese cabbage sprayed; six days after the spraying; greenhouse
Source text: Insecticidal Effect on Green Peach Aphid (Myzus Persicae)
A Chinese cabbage plant was planted in each of plastic pots with a diameter of 8 cm and a height of 8 cm, and green peach aphids were propagated on the plant. Then, the stems and leaves were sufficiently sprayed with a liquid chemical prepared by diluting a preparation containing each compound listed in Tables 1 to 4 as an active ingredient to adjust the concentration to 500 ppm. After air-drying, the pots were allowed to stand in a greenhouse. Six days after the spraying, green peach aphids parasitic on each Chinese cabbage plant were counted and the control efficacy was calculated, whereby the […] effect was judged according to the criterion shown below. Control efficacy (%)=100−[(T×Ca)/(Ta×C)]×100 • Ta: number of parasites before spraying in treated group, • T: number of parasites after spraying in treated group,
Ca: number of parasites before spraying in untreated group, • […]: number of parasites after spraying in untreated group. Criterion for Judgment: • A: control efficacy 100% • B: control efficacy 99 to 90% • C: control efficacy 89 to 80% • D: control efficacy 79 to 50%

[2] = system: Diamond Back Moth (Plutella xylostella); experiment: Insecticidal effect on diamond back moth (Test Example 1); conditions: 500 ppm; Chinese cabbage seedling with eggs immersed about 30 seconds; six days after the immersion; 25° C.
Source text: Insecticidal Effect on Diamond Back Moth (Plutella xylostella)
Adult diamond back moths were released and allowed to oviposit on a Chinese cabbage seedling. Two days after the release, the seedling having the eggs deposited thereon was immersed for about 30 seconds in a liquid chemical prepared by diluting a preparation containing each compound listed in Tables 1 to 4 as an active ingredient to adjust the concentration to 500 ppm. After air-dryness, it was allowed to stand in a room thermostatted at 25° C. Six days after the immersion, the hatched insects were counted. The mortality was calculated according to the following equation and the insecticidal effect was judged according to the criterion shown below. The test was carried out with triplicate groups of 10 insects.

[3] = system: Two-Spotted Spider Mite (Tetranychus Urticae); experiment: Acaricidal effect on two-spotted spider mite (Test Example 3); conditions: 500 ppm; kidney bean leaf disc with female adults sprayed; two days after the treatment; 25° C.
Description: Acaricidal Effect on Two-Spotted Spider Mite (Tetranychus Urticae)
A leaf disc with a diameter of 2 cm was made of a kidney bean leaf, placed on wet filter paper, inoculated with female adult two-spotted spider mites, and then uniformly sprayed, on a turntable, with 50 ml of a liquid chemical prepared by diluting a preparation containing each compound listed in Tables 1 to 4 as an active ingredient to adjust the concentration to 500 ppm. After the spraying, the leaf disc was allowed to stand in a room thermostated at 25° C. Two days after the treatment with the preparation, the dead insects were counted and the acaricidal effect was judged according to the criterion shown in Test Example 1. The test was carried out with two replications of 10 insects.

| SMILES | control efficacy rating [1] | insecticidal effect (mortality rating) [2] | acaricidal effect (mortality rating) [3] |
| --- | --- | --- | --- |
| CCCc1cc(C(C(F)(F)F)C(F)(F)F)ccc1NC(=O)c1c(C)nn(C)c1Cl [1-4] | B or higher | B or higher | – |
| CCC(C)c1cc(C(C(F)(F)F)C(F)(F)F)ccc1NC(=O)c1c(C)nn(C)c1Cl (stereo not shown) [1-8] | B or higher | – | – |
| Cc1nn(C)c(Cl)c1C(=O)Nc1ccc(C(C(F)(F)F)C(F)(F)F)c2ccccc12 [1-17] | – | B or higher | – |
| Cc1nn(C)c(Cl)c1C(=O)Nc1ccc(C(C(F)(F)F)C(F)(F)F)cc1-c1ccccc1 [1-20] | – | B or higher | – |
| Cc1nn(C)c(Cl)c1C(=O)Nc1ccc(C(F)(C(F)(F)F)C(F)(F)F)cc1C(C)C(C)C (stereo not shown) [1-21] | – | B or higher | – |
| CCCC(C)c1cc(C(C(F)(F)F)C(F)(F)F)ccc1NC(=O)c1c(C)nn(C)c1Cl (stereo not shown) [1-22] | – | – | B or higher |
| CCCC(C)c1cc(C(C(F)(F)F)C(F)(F)F)ccc1NC(=O)c1c(C)nn(C)c1C (stereo not shown) [1-25] | B or higher | – | B or higher |
| CCCC(C)c1cc(C(OC)(C(F)(F)F)C(F)(F)F)ccc1NC(=O)c1c(C)nn(C)c1C (stereo not shown) [1-26] | – | B or higher | B or higher |
| CC(C)CC(C)c1cc(C(F)(C(F)(F)F)C(F)(F)F)ccc1NC(=O)c1cn(C)nc1C(F)(F)F (stereo not shown) [1-28] | – | B or higher | – |
| CC(C)CC(C)c1cc(C(C(F)(F)F)C(F)(F)F)ccc1NC(=O)c1cn(C(F)F)nc1C(F)(F)F (stereo not shown) [1-33] | – | B or higher | – |
| Cc1nn(C)cc1C(=O)Nc1ccc(C(C(F)(F)F)C(F)(F)F)cc1C(C)CC(C)C (stereo not shown) [1-34] | – | – | B or higher |
| CCc1nn(C)cc1C(=O)Nc1ccc(C(C(F)(F)F)C(F)(F)F)cc1C(C)CC(C)C (stereo not shown) [1-35] | B or higher | B or higher | – |
| CC(C)CC(C)c1cc(C(C(F)(F)F)C(F)(F)F)ccc1NC(=O)c1cn(C)nc1Br (stereo not shown) [1-39] | – | – | B or higher |
| CC(C)CC(C)c1cc(C(C(F)(F)F)C(F)(F)F)ccc1NC(=O)c1cn(C)nc1I (stereo not shown) [1-40] | – | – | B or higher |
| CSc1nn(C)cc1C(=O)Nc1ccc(C(C(F)(F)F)C(F)(F)F)cc1C(C)CC(C)C (stereo not shown) [1-41] | B or higher | B or higher | – |
| CC(C)CC(C)c1cc(C(C(F)(F)F)C(F)(F)F)ccc1NC(=O)c1cnn(C)c1S(C)(=O)=O (stereo not shown) [1-48] | – | B or higher | – |
| CCn1ncc(C(=O)Nc2ccc(C(C(F)(F)F)C(F)(F)F)cc2C(C)CC(C)C)c1Cl (stereo not shown) [1-51] | – | – | B or higher |
| CC(C)CC(C)c1cc(C(C(F)(F)F)C(F)(F)F)ccc1NC(=O)c1cnn(C)c1I (stereo not shown) [1-56] | – | B or higher | – |
| CCn1ncc(C(=O)Nc2ccc(C(C(F)(F)F)C(F)(F)F)cc2C(C)CC(C)C)c1I (stereo not shown) [1-57] | – | B or higher | – |
| Cc1nn(C)c(F)c1C(=O)Nc1ccc(C(C(F)(F)F)C(F)(F)F)cc1C(C)CC(C)C (stereo not shown) [1-65] | B or higher | B or higher | B or higher |
| Cc1nn(C)c(Cl)c1C(=O)Nc1ccc(C(F)(C(F)(F)F)C(F)(F)F)cc1C(C)CC(C)C (stereo not shown) [1-70] | – | B or higher | – |
| CCOC(c1ccc(NC(=O)c2c(C)nn(C)c2Cl)c(C(C)CC(C)C)c1)(C(F)(F)F)C(F)(F)F (stereo not shown) [1-73] | – | B or higher | – |
| CCn1nc(C)c(C(=O)Nc2ccc(C(C(F)(F)F)C(F)(F)F)cc2C(C)CC(C)C)c1Cl (stereo not shown) [1-78] | – | – | B or higher |
| Cc1nn(C)c(Br)c1C(=O)Nc1ccc(C(C(F)(F)F)C(F)(F)F)cc1C(C)CC(C)C (stereo not shown) [1-81] | B or higher | – | B or higher |
| COC(c1ccc(NC(=O)c2c(C)nn(C)c2Br)c(C(C)CC(C)C)c1)(C(F)(F)F)C(F)(F)F (stereo not shown) [1-82] | – | B or higher | B or higher |

| SMILES | control efficacy rating [1] | insecticidal effect (mortality rating) [2] | acaricidal effect (mortality rating) [3] |
| --- | --- | --- | --- |
| Cc1nn(C)c(I)c1C(=O)Nc1ccc(C(C(F)(F)F)C(F)(F)F)cc1C(C)CC(C)C (stereo not shown) [1-87] | B or higher | – | – |
| COC(c1ccc(NC(=O)c2c(C(F)(F)F)nn(C)c2Cl)c(C(C)CC(C)C)c1)(C(F)(F)F)C(F)(F)F (stereo not shown) [1-104] | – | – | B or higher |
| Cc1nn(C)c(C)c1C(=O)Nc1ccc(C(C(F)(F)F)C(F)(F)F)cc1C(C)CC(C)C (stereo not shown) [1-107] | – | B or higher | – |
| CCCn1nc(C)c(C(=O)Nc2ccc(C(C(F)(F)F)C(F)(F)F)cc2C(C)CC(C)C)c1C (stereo not shown) [1-119] | – | – | B or higher |
| CCc1nn(C)c(Cl)c1C(=O)Nc1ccc(C(C(F)(F)F)C(F)(F)F)cc1C(C)CC(C)C (stereo not shown) [1-132] | – | B or higher | B or higher |
| CCCCC(C)c1cc(C(C(F)(F)F)C(F)(F)F)ccc1NC(=O)c1c(C)nn(C)c1Cl (stereo not shown) [1-143] | – | B or higher | B or higher |
| Cc1nn(C)c(Cl)c1C(=O)Nc1ccc(C(F)(C(F)(F)F)C(F)(F)F)cc1C(C)CCC(C)C (stereo not shown) [1-145] | – | B or higher | – |
| Cc1nn(C)c(C)c1C(=O)Nc1ccc(C(F)(C(F)(F)F)C(F)(F)F)c(C)c1C [1-163] | – | B or higher | – |
| Cc1nn(C)c(C)c1C(=O)Nc1ccc(C(C(F)(F)F)C(F)(F)F)c(C)c1C [1-164] | – | B or higher | – |
| CC(C)CC(C)c1cc(C(C(F)(F)F)C(F)(F)F)ccc1NC(=O)c1ncc(Cl)cc1Cl (stereo not shown) [3-2] | – | B or higher | – |
| CC(C)CC(C)c1cc(C(C(F)(F)F)C(F)(F)F)ccc1NC(=O)c1cnccc1C(F)(F)F (stereo not shown) [3-3] | – | B or higher | – |
| CC(C)CC(C)c1cc(C(C(F)(F)F)C(F)(F)F)ccc1NC(=O)c1cccnc1Cl (stereo not shown) [3-4] | – | B or higher | – |
| Cc1nnsc1C(=O)Nc1ccc(C(F)(C(F)(F)F)C(F)(F)F)cc1C(C)CC(C)C (stereo not shown) [3-10] | – | B or higher | – |
| Cc1coc(C)c1C(=O)Nc1ccc(C(C(F)(F)F)C(F)(F)F)cc1C(C)CC(C)C (stereo not shown) [3-13] | B or higher | – | B or higher |
| CC(C)CC(C)c1cc(C(C(F)(F)F)C(F)(F)F)ccc1NC(=O)c1cscc1Br (stereo not shown) [3-21] | – | – | B or higher |
| CC(C)CC(C)c1cc(C(C(F)(F)F)C(F)(F)F)ccc1NC(=O)c1cccs1 (stereo not shown) [3-27] | B or higher | – | – |
| Cc1noc(C)c1C(=O)Nc1ccc(C(C(F)(F)F)C(F)(F)F)cc1C(C)CC(C)C (stereo not shown) [3-34] | B or higher | – | – |
| Cc1c(Cl)c(C(=O)Nc2ccc(C(C(F)(F)F)C(F)(F)F)cc2C(C)CC(C)C)nn1C (stereo not shown) [4-1] | B or higher | B or higher | – |
| Cc1nn(C)c(C(=O)Nc2ccc(C(C(F)(F)F)C(F)(F)F)cc2C(C)CC(C)C)c1Cl (stereo not shown) [4-4] | – | B or higher | – |
| Cc1nn(C)c(C(=O)Nc2ccc(C(C(F)(F)F)C(F)(F)F)cc2C(C)CC(C)C)c1Br (stereo not shown) [4-5] | – | B or higher | – |
| Cc1nn(C)c(Cl)c1C(=O)Nc1ccc(C(C(F)(F)F)C(F)(F)F)cc1C(C)(C)C [Compound No. 1-10] | – | B or higher | – |
| Cc1nn(C)c(Cl)c1C(=O)Nc1ccc(C(C(F)(F)F)C(F)(F)F)c2c1CCCC2 [Compound No. 1-14] | – | B or higher | – |
| COC(c1ccc(NC(=O)c2c(C)nn(C)c2C)c(C(C)CC(C)C)c1)(C(F)(F)F)C(F)(F)F (stereo not shown) [Compound No. 1-108, N-{2-(1,3-dimethylbutyl)-4-[1-methoxy-2,2,2-trifluoro-1-(trifluoromethyl)ethyl]-phenyl}-1,3,5-trimethylpyrazole-4-carboxamide] | – | B or higher | – |
| Cc1nn(C)c(Cl)c1C(=O)Nc1ccc(C(C(F)(F)F)C(F)(F)F)cc1C(C)CCC(C)C (stereo not shown) [Compound No. 1-146, N-{2-(1,4-dimethylpentyl)-4-[2,2,2-trifluoro-1-(trifluoromethyl)ethyl]phenyl}-5-chloro-1,3-dimethylpyrazole-4-carboxamide] | B or higher | B or higher | B or higher |
